Experimental findings from patent publication US12410147B2, “Surfactants” (Imperial College Innovations Limited, priority 2020, dated 2025) are described below.

A short description of data set [1]: Solubility study in water (ISO standard 6839). The conditions noted are these: for solubility in water (concentration solubilized): room temperature. It is filed as physicochemical. As for the experimental part:
10 ml of solution was poured into a 20 ml vial and allowed to cool until precipitation was observed. Other 10 ml of solution was poured into a 20 ml vial and kept at a higher temperature. The precipitated sample was slowly heated and the clear sample was slowly cooled. The temperature at which an appearance change occurred was considered the temperature of solubility at a specific surfactant concentration.

A short description of data set [2]: Resistance to hard water (ISO standard 1063). Format: physicochemical. The conditions noted are these: for appearance of the solutions in hard water stability tests (in words): all calcium concentrations; for Mean Stability: class from total score according to Table 3; for Total Score: sum of 15 appearance scores, CaCl2 6, 9 and 12 m equivalent Ca/L, five aliquots of 50 mg/ml mother solution. As for the experimental part:
These measurements were made according the standard protocol reported in ISO standard 1063. Calcium chloride was used as cation source at concentrations of 6, 9 and 12 m equivalent Ca/L (3.0, 4.5, 6.0 mM). A mother solution of surfactant with 50 mg/ml concentration was prepared in water at 20° C. In a 50 ml falcon-tube, a defined aliquot of mother solution was transferred and diluted up to 50 ml with the calcium solution. Five different aliquots of surfactant mother solution were tested: 5.0, 2.5, 1.2, 0.6 and 0.3 ml. In every test, the appearance of the sample was inspected and assigned a score according to Table 2. The scores of the 15 tests for each surfactant were summed and the final result was expressed as mean stability according to Table 3.
• Opalescent is a solution not clear but which objects can be seen. Cloudy is a solution not clear which objects cannot be seen through.

Data set [3] in a line: Critical micelle concentration, air-water-surfactant system, pendant drop method. The conditions noted are these: 25° C., deionised water. Format: physicochemical. How it is done: Concentrations that were evaluated for each surfactant varied depending on the solubility of the surfactant and the surface tension reduction observed during the analysis. The experiment was performed at 25° C. Deionised water (prepared using a Milli-Q system (Merck)) was used for each experiment. The pendant drop method was used to calculate the surface tension by using a Krüss DSA25. A drop of the solution was produced in the tip of a blunt metal needle (1.25 mm) until the drop reached its maximum size. After 10-15 seconds of equilibration, an image of the drop was captured using a digital camera. The drop was analyzed using the software Krüss EasyDrop Standard-Drop Shape Analysis (DSA1) v 1.92. The software uses the Young-Laplace equation to calculate the surface tension according to the drop deformation considering the effect of gravity and hydrostatic pressure. Critical micellar concentration (CMC) was obtained after plotting surface tension vs surfactant concentration. The CMC is calculated as the surfactant concentration where the initial straight line intersects the plateau in the graph.

Data set [4] can be described thus: Surface tension in octanol-water-surfactant system, drop volume method (ISO 9101 modified). Format: physicochemical. From the text:
The drop volume method was used to calculate the surface tension in the system following the ISO standard 9101 with some modifications. In each experiment a drop of aqueous solution of surfactant was slowly formed in the tip of a needle (d=1.82 mm) submerged in octanol using a syringe connected at a Krüss DSA25 drop shape analyser instrument. The drop formation was allowed to grow as close as possible the maximum volume at which it would detach from the needle. At this point, the drop was left to stabilize for 2 minutes and then was detached from the needle by providing a small amount of additional solution. A photo of the drop leaving the needle was captured using the camera connected to the Krüss DSA25. The diameter of the drop was measured, and the surface tension was calculated using the following equation: […]
Where γ is the surface tension (mN/m), V is the drop volume (cm^3), Δρ is the difference of density between water and octanol (g/cm^3), g is the acceleration due to gravity (cm/s^2), d is the outer diameter of the needle (cm), and f is a correction factor calculated using the following equation: […]
Surface tension at concentration 2 times the CMC in deionised water (prepared using a Milli-Q system (Merck)) are summarized in Table 6. […] In FIG. 2 the drops formation of a water/surfactant solution in octanol have been reported for the SAF-8, SAF-12 and SDBS at a concentration of surfactant double of the CMC. The SAF-8 show the lower surface tension due mostly to the high concentration of surfactant used ([…]).
SAF-8 was evaluated using a concentration 2 times the CMC, while SAF-12 was evaluated at 2, 4 and 8 times the CMC.

A short description of data set [5]: Foaming capacity (ISO 6964 with modifications). Format: physicochemical. The conditions noted are these: 0.2% surfactant, 50° C., after 5 minutes; for Foam height, hard water: 200 ppm CaCl2. How it is done:
Foaming capacity was evaluated following the protocol set out in ISO 6964, with some modifications. In each test, 700 mL of surfactant solution containing 0.2% surfactant was prepared using deionized water or a hard water solution of distilled water with 200 ppm of CaCl2. The solutions were prepared by agitating the components for 60 minutes at 50° C. After 60 minutes, 50 mL of solution was poured in a 1000 mL glass measuring cylinder, which was then placed in a water bath that was heated to 50° C. 600 mL of the surfactant solution was poured into a chromatography column fitted with a stainless-steel needle at the egress. The column was placed over the measuring cylinder so that the tip of the needle was […] from the surfactant solution in the measuring cylinder. 450 mL of surfactant solution were poured from the column into the measuring cylinder. After pouring the solution, foam height was measured at 30 sec, 3 min, 5 min and 15 min.

Data set [6] has as its system E. coli in expressing the b-galactosidase. It is filed as cell-based. The conditions noted are these: 37° C., 30 min, OD 600 nm. How it is done: The toxicity of different surfactants was analysed using a Toxi-Chromo test kit supplied by EBPI to quantify the inhibition of E. coli in expressing the b-galactosidase in the presence of the surfactants. Using the standard protocol, a mother solution containing 1000 ppm of a surfactant was prepared. The bacteria inoculum was mixed with a reaction mixture, nutrients supplied with the kit and the toxicant. A further 15 samples at containing different amounts of the surfactant were prepared in the well plate through subsequent dilutions. The chromogen supplied with the kit was added in each well and the well plate was then incubated at 37° C. for 30 min. The optical density (OD) was read at 600 nm using a plate reader. The % inhibition was measured by the OD variation (which is associated a blue colour development). EC50 was measured by plotting and fitting the % inhibition and surfactant concentration.

The next data set deals with protozoa microorganisms. It is filed as cell-based. The conditions noted are these: 30° C., 24 h, OD 440 nm. How it is done: The toxicity of different surfactants was analysed using a Protoxkit supplied by microbiotests quantify the inhibition of growth of protozoa microorganisms in the presence of the surfactants. Using the standard protocol, a dilution series of toxicant was prepared by serial 1:1 dilution with distilled water. 2 mL of each solution is placed in a UV cuvette. An inoculum of Protozoa was diluted to reach an OD of 0.04 at 440 nm then 40 μL of inoculum was added along a solution of 40 μL of nutrients in each dilution vials. The initial OD was measured for each vial and the vial was then incubated at 30° C. for 24 h. Inhibition was measured by the comparing the variation of initial and final OD.

Another data set concerns zein protein. The data set can be described thus: Zein solubilisation study. The conditions noted are these: 2 g zein, 40 ml of 0.5 wt % surfactant solution, 40° C., 12 h. As for the experimental part:
The applicability of surfactants in personal care products was studied by analysing their capacity to solubilise zein protein. In each test 2 g of zein protein was mixed with 40 ml of 0.5 wt % surfactant solution and the mixture was incubated at 40° C. for 12 h. The mixture was then centrifuged and the remaining solid zein was washed with 50 mL of water 5 times. The solid zein was dried for in an oven at 70° C. for 5 days and weighted. The zein solubilisation was evaluated as percentage of zein that was dissolved into the surfactant solution.

Where [7] appears, read: surfactant concentration 12.5 % weight in water.
Where [8] appears, read: surfactant concentration 15 % weight in water.
The mark [9] stands for this setting: surfactant concentration 17.5 % weight in water.
The mark [10] stands for this setting: surfactant concentration 20 % weight in water.
Where [11] appears, read: surfactant concentration 22.5 % weight in water.
The mark [12] stands for this setting: deionised water in octanol, concentration 2 times the CMC.
Setting [13] is: hard water (500 ppm CaCl2) in octanol, 2 times the CMC.

On to `CCCCCCCCOC(=O)c1ccc(S(=O)(=O)O)o1` [SAF-8, Sulfonated Octyl Furoate], for which the “solubility in water (concentration solubilized)” value in data set [1] is reported as “up to 140%”. For the same compound, the “temperature at which dissolution was observed” value in data set [1] (setting [7]), in data set [1] (setting [8]), in data set [1] (setting [9]), in data set [1] (setting [10]) and in data set [1] (setting [11]) was below 0 °C throughout. The “appearance of the solutions in hard water stability tests (in words)” value (“appearance of the solutions” for short) in data set [2] is “remained clear”. In data set [2], the “Mean Stability” value was 5 (75). Moreover, the “Total Score” value in data set [2] was 75. The compound also showed a CMC in data set [3] of 1330 ppm. Further, the Surface tension is 2.65 mN/m in data set [4] (setting [12]) and 1.91 ± 0.25 mN/m in data set [4] (setting [13]). Moreover, in data set [5], the “Foam height, hard water” value is recorded as 5 ± 0.5 mm. Besides, in data set [5], the “Foam height, distilled water” value came to 2.5 ± 0.7 mm. For the same compound, in data set [6], the “EC50, inhibition of E. coli in expressing the b-galactosidase” value (from here on “EC50, inhibition of E. coli”) came to 292 ± 13 ppm. Also, the “EC50, inhibition of growth of protozoa microorganisms” value in the data set on protozoa microorganisms turned out to be 673 ± 10 ppm. Also, in the data set with zein protein, the “% of zein dissolved” value is on record as 10.4 ± 0.98%.

Regarding `CCCCCCCCCCCCOC(=O)c1ccc(S(=O)(=O)O)o1` [SAF-12, Sulfonated Dodecyl Furoate], the “temperature below which the surfactant would precipitate” value in data set [1] (20% solution) is “below 20 °C”. For the same compound, the “solubility in water (concentration soluble)” value in data set [1] (24° C.) was found to be 20%. In addition, the “temperature at which dissolution was observed” value is 20-25 °C in data set [1] (setting [7]); 20-25 °C in data set [1] (setting [8]); 20-25 °C in data set [1] (setting [9]); 20-25 °C in data set [1] (setting [10]); below 0 °C in data set [1] (setting [11]). For the same compound, in data set [2], the “appearance of the solutions” value is given as “remained clear”. Also, the “Mean Stability” value in data set [2] was 5 (75). In addition, in data set [2], the “Total Score” value stood at 75. The CMC in data set [3] is recorded as 521 ppm. Moreover, the Surface tension in data set [4] (setting [12]) was found to be 3.42 mN/m; in data set [4] (setting [13]) it was 4.51 ± 0.5 mN/m; in data set [4] (hard water (500 ppm CaCl2) in octanol, 4 times the CMC), 3.78 ± 0.45 mN/m; in data set [4] (hard water (500 ppm CaCl2) in octanol, 8 times the CMC) it was 1.99 ± 0.27 mN/m. In addition, the “Foam height, hard water” value in data set [5] is on record as 10.35 ± 0.5 mm. In addition, the “Foam height, distilled water” value in data set [5] turned out to be 7.8 ± 0.4 mm. Also, the “EC50, inhibition of E. coli” value in data set [6] came to 63.5 ± 2.8 ppm. For the same compound, in the data set with protozoa microorganisms, the “EC50, inhibition of growth of protozoa microorganisms” value worked out at 49.65 ± 5 ppm. In addition, the “% of zein dissolved” value in the data set on zein protein is 15.3 ± 0.26%.

Consider `CCCCCCCCCCCCCCCCOC(=O)c1ccc(S(=O)(=O)O)o1` [SAF-16, Sulfonated Hexadecyl Furoate], for which the “solubility in water (in words)” value in data set [1] (comparison of surfactants) was “very low solubility”. The “solubility in water (concentration solubilized)” value in data set [1] came to 0.05%. Besides, the “temperature at which dissolution was observed” value in data set [1] (setting [7]), in data set [1] (setting [8]), in data set [1] (setting [9]), in data set [1] (setting [10]) and in data set [1] (setting [11]) was above 50 °C each time. This compound gave a CMC in data set [3] of 60 ppm.

As for `CCCCCCCCCCCCOS(=O)(=O)[O-].[Na+]` [SDS, sodium dodecyl sulfate, reference compound], in data set [2], the “appearance of the solutions” value is on record as “extensive precipitation in many tests”, the “Mean Stability” value is on record as 2 (19-37) and the “Total Score” value is listed as 21. In addition, in data set [4] (setting [12]), the Surface tension was found to be 1.34 ± 0.28 mN/m. The “behaviour in hard water (in words)” value in data set [4] (hard water (500 ppm CaCl2)) is on record as “significant agglomeration”. In addition, in data set [5], the “Foam height, hard water” value stood at 4.25 ± 0.4 mm and the “Foam height, distilled water” value is listed as 7.25 ± 0.4 mm. The “EC50, inhibition of E. coli” value in data set [6] came out at 123.7 ± 5.2 ppm. In addition, the “EC50, inhibition of growth of protozoa microorganisms” value in the data set on protozoa microorganisms worked out at 85.71 ± 3.8 ppm.
